In experiment [1] the target is T1, MHC-II DRB1*03:01 (Homo sapiens, UniProt P01903+P01911, A100K/A102G/A103R/A169T/F55Y/I96L/K41T/L162R/M171V/P40S/Q125H/Q178H/Q39Y/R42S/S66N/T106N/T262R/W38E/Y61H). In words: Cell-free REVEAL class II binding assay. The note with it: signal of test peptide as percentage of allele-specific positive control peptide, fluorescence, conformation-specific monoclonal antibody. In a few lines:
(§1)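 Test peptides incubated with MHC-II protein; correctly folded complexes then detected with a specific monoclonal antibody giving a fluorescence signal. Each peptide scored quantitatively against that allele's positive control epitope, expressed as a percentage.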

Experiment [2] has as its target T2, MHC-II DRB1*04:01 (Homo sapiens, UniProt P01903+P01911, A100K/A169T/F76Y/I96L/K127E/L162R/M171V/N62H/P40V/Q125Y/R42H/S133A/S149N/S66Y/V115G/V209L/W38E). Briefly: Cell-free REVEAL class II binding assay. The note with it: signal of test peptide as percentage of allele-specific positive control peptide, fluorescence, conformation-specific monoclonal antibody. In a few lines: as §1

Experiment [3] concerns the target T3, MHC-II DRB1*07:01 (Homo sapiens, UniProt P01903+P01911, A100R/A102G/A103Q/D57E/D86V/E43K/F76Y/K127E/L162R/M171V/P40G/Q125H/Q99D/R33Q/R42Y/R54Q/S133A/S66F/T210M/V115G/Y107V/Y59L/Y89S). Briefly: Cell-free REVEAL class II binding assay. The note with it: signal of test peptide as percentage of allele-specific positive control peptide, fluorescence, conformation-specific monoclonal antibody. The procedure, abridged: as §1

For experiment [4], the target named is T4, MHC-II DRB1*11:01 (Homo sapiens, UniProt P01903+P01911, A100R/A169T/A87E/I96F/K41T/L162R/M171V/P40S/Q125H/Q178H/Q39Y/Q99D/R42S/S66Y/T262R/V115G/W38E). In words: Cell-free REVEAL class II binding assay. The note with it: signal of test peptide as percentage of allele-specific positive control peptide, fluorescence, conformation-specific monoclonal antibody. In a few lines:
as §1

Experiment [5] concerns the target T5, MHC-II DRB1*15:01 (Homo sapiens, UniProt P01903+P01911).
T5 construct: purchased ProImmune
In words: Cell-free REVEAL class II binding assay. The note with it: signal of test peptide as percentage of allele-specific positive control peptide, fluorescence, conformation-specific monoclonal antibody. In a few lines: as §1

Experiment [6] concerns the target T6, MHC-II DRB1*15:03 (Homo sapiens, UniProt P01903+P01911, Y59H).
T6 construct: purchased ProImmune
In words: Cell-free REVEAL class II binding assay. The note with it: signal of test peptide as percentage of allele-specific positive control peptide, fluorescence, conformation-specific monoclonal antibody. In a few lines:
as §1

In experiment [7] the target is T1, MHC-II DRB1*03:01. Briefly: Cell-free REVEAL class II stability assay. The note with it: half-life of peptide-MHC-II complex (h, capped at 120) x Binding Score / 100, conformational ELISA. In a few lines: (§2)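 Half-lives of peptide–MHC-II complexes measured cell-free; on-rates tracked 96 hr at 10°C, off-rates from dissociating complexes; timed samples frozen in liquid nitrogen. Readout: conformational ELISA (anti-HLA antibody). One-phase curve fits give k, then t1/2; normalized stability = t1/2 × Binding Score / 100.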
For orientation: In an ELISA, binding on a coated surface is turned into a signal by an enzyme label.

Experiment [8] deals with T2, MHC-II DRB1*04:01. In words: Cell-free REVEAL class II stability assay. The note with it: half-life of peptide-MHC-II complex (h, capped at 120) x Binding Score / 100, conformational ELISA. In a few lines:
as §2

For experiment [9], the target named is T3, MHC-II DRB1*07:01. Briefly: Cell-free REVEAL class II stability assay. The note with it: half-life of peptide-MHC-II complex (h, capped at 120) x Binding Score / 100, conformational ELISA. In a few lines:
as §2

For experiment [10], the target named is T4, MHC-II DRB1*11:01. In words: Cell-free REVEAL class II stability assay. The note with it: half-life of peptide-MHC-II complex (h, capped at 120) x Binding Score / 100, conformational ELISA. The procedure, abridged:
as §2

In experiment [11] the target is T5, MHC-II DRB1*15:01. In words: Cell-free REVEAL class II stability assay. The note with it: half-life of peptide-MHC-II complex (h, capped at 120) x Binding Score / 100, conformational ELISA. The procedure, abridged:
as §2

Experiment [12] concerns the target T6, MHC-II DRB1*15:03. Briefly: Cell-free REVEAL class II stability assay. The note with it: half-life of peptide-MHC-II complex (h, capped at 120) x Binding Score / 100, conformational ELISA. In a few lines: as §2

T1 sequence (P01903 26-254 limits assumed, other chains not shown): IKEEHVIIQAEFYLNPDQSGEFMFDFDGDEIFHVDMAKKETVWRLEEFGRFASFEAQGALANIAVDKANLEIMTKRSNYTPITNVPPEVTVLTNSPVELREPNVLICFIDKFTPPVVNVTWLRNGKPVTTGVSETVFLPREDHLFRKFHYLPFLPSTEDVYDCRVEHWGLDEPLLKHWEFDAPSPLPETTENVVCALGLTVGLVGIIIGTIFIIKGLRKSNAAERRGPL
T4 sequence (P01903 26-254 limits assumed, other chains not shown): as above
T6 sequence (P01903 26-254, other chains not shown): as the sequence (P01903 26-254 limits assumed, other chains not shown) above

On to “YISQFIIMYSLDGKK [synthetic wild type FVIII 15 mer peptide]”, for which the “Binding Score” value in [1] came out at 1.8%; in experiment [2], 44.5%; in experiment [3], 0.0%; in experiment [4], 114.1%; in [5] it was 602.6%; in experiment [6], 1.4%. Besides, the “Stability Index” value in experiment [7] is recorded as 0.2; in experiment [8], 30.9; in [9] it was 0.0; in experiment [10] it was 33.1; in experiment [11], 723.1; in [12], 1.7.
“YNIYPHGITDVRPLY [synthetic wild type FVIII 15 mer peptide, region of ns-SNP R484H]”: the “Binding Score” value in experiment [1] was 0.2%; in experiment [2], 2.1%; in experiment [3] it was 0.1%; in [4] it was 35.8%; in [5] it was 40.8%; in experiment [6], 0.1%. The “Stability Index” value is reported as 0.0 in [7]; 0.2 in [8]; 0.1 in [9]; 1.1 in [10]; 2.0 in experiment [11]; 0.1 in [12].
In the case of “YPHGITDVRPLYSRR [synthetic wild type FVIII 15 mer peptide, region of ns-SNP R484H]”, the “Binding Score” value is on record as 4.8% in experiment [1]; 0.1% in experiment [2]; 0.1% in experiment [3]; 46.7% in experiment [4]; 0.4% in experiment [5]; 0.1% in experiment [6]. Also, the “Stability Index” value in experiment [7] was 5.2; in [8], 0.0; in [9], 0.1; in experiment [10], 1.2; in experiment [11], 0.5; in [12], 0.1.
Turning to “YSLDGKKWQTYRGNS [synthetic wild type FVIII 15 mer peptide]”, the “Binding Score” value was found to be 0.0% in experiment [1]; 0.9% in experiment [2]; 0.0% in [3]; 23.5% in experiment [4]; 11.8% in experiment [5]; 0.2% in experiment [6]. The “Stability Index” value in [7] is recorded as 0.0; in [8] it was 0.1; in experiment [9], 0.0; in experiment [10], 1.1; in experiment [11] it was 3.0; in experiment [12], 0.0.
As to “YTFKHKMVYEDTLTL [synthetic wild type FVIII 15 mer peptide]”, the “Binding Score” value is given as 0.8% in experiment [1]; 5.0% in experiment [2]; 0.0% in experiment [3]; 31.6% in [4]; 0.9% in [5]; 0.0% in experiment [6]. Also, the “Stability Index” value is recorded as 0.0 in experiment [7]; 0.5 in experiment [8]; 0.0 in experiment [9]; 13.7 in experiment [10]; 1.1 in experiment [11]; 0.1 in [12].
